Key:
[1] = target: Muscarinic acetylcholine receptor M3 (Rattus norvegicus) (UniProt P08483); assay: Displacement of [3H]QNB from muscarinic M3 receptor in rat brain homogenates at 1 uM after 60 mins relative to control; type: tissue-based
[2] = target: T1, Muscarinic acetylcholine receptor M4 (Rattus norvegicus) (UniProt P08485); assay: Displacement of [3H]QNB from muscarinic M4 receptor in rat brain homogenates at 1 uM after 60 mins relative to control; type: tissue-based
T1 sequence (whole entry): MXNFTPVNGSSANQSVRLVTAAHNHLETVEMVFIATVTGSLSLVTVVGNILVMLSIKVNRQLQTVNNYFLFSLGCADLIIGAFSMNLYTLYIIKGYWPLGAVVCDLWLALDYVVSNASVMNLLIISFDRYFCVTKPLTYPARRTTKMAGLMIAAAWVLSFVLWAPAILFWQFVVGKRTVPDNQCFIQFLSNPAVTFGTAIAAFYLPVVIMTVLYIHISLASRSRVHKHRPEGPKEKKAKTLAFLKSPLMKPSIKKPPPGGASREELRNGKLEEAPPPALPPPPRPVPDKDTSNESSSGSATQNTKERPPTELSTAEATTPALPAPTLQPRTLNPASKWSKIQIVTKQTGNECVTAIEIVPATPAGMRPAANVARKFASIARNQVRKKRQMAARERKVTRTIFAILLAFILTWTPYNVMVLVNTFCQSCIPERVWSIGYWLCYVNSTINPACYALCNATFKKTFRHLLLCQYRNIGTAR

[3] = target: T2, Muscarinic acetylcholine receptor M1 (Rattus norvegicus) (UniProt P08482); assay: Displacement of [3H]QNB from muscarinic M1 receptor in rat brain homogenates at 1 uM after 60 mins relative to control; type: tissue-based
T2 sequence (whole entry): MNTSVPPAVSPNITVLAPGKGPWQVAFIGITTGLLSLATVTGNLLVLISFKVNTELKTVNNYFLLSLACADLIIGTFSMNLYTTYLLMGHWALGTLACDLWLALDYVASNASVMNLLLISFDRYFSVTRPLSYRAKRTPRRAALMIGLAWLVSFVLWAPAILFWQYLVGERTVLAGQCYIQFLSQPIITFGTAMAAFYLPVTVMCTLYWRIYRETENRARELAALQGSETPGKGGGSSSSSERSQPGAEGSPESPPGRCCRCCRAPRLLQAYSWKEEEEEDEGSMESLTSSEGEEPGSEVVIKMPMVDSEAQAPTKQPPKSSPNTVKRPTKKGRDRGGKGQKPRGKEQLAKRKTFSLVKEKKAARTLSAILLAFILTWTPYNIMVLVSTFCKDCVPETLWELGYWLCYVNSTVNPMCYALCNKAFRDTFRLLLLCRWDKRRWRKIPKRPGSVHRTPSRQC

Acetylcholinesterase = Acetylcholinesterase (Electrophorus electricus, UniProt O42275); assay: Inhibition of electric eel AChE using acetylthiocholine as substrate preincubated for 8 mins followed by substrate addition by Ellman's method
[4] = target: T3, Muscarinic acetylcholine receptor M2 (Rattus norvegicus) (UniProt P10980); assay: Displacement of [3H]QNB from muscarinic M2 receptor in rat brain homogenates at 1 uM after 60 mins relative to control; type: tissue-based
T3 sequence (whole entry): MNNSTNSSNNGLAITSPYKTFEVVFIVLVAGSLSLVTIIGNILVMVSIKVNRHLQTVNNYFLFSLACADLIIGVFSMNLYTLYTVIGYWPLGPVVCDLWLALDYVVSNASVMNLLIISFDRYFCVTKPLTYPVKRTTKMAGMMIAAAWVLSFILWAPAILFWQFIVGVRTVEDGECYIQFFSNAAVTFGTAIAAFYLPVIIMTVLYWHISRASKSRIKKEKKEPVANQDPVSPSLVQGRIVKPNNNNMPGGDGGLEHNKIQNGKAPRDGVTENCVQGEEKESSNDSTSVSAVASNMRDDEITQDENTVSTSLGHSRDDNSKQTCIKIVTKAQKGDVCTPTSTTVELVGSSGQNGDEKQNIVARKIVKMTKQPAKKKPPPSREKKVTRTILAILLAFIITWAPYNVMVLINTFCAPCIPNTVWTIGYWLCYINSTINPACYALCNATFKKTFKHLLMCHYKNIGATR

Cholinesterase = Cholinesterase (Equus caballus, UniProt P81908); assay: Inhibition of equine serum BuChE using butyrylthiocholine as substrate preincubated for 8 mins followed by substrate addition by Ellman's method
Sequence of Cholinesterase (P81908 whole entry): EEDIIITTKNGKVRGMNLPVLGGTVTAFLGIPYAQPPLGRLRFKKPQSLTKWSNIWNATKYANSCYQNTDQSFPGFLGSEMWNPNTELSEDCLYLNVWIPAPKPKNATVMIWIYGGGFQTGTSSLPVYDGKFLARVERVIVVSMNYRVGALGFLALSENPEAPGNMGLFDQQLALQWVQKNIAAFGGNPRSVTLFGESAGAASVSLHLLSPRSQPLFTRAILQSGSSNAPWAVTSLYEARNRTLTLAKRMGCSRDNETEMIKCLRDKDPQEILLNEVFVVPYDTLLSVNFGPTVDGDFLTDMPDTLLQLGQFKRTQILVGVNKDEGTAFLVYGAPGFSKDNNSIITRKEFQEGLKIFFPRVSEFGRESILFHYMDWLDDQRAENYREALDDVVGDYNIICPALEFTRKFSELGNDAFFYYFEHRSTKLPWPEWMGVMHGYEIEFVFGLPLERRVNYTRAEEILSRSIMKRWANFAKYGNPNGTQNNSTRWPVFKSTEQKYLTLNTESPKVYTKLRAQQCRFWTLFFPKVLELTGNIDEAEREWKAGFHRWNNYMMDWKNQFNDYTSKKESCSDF

Sequence of Muscarinic acetylcholine receptor M3 (Rattus norvegicus) (P08483 whole entry, looked up): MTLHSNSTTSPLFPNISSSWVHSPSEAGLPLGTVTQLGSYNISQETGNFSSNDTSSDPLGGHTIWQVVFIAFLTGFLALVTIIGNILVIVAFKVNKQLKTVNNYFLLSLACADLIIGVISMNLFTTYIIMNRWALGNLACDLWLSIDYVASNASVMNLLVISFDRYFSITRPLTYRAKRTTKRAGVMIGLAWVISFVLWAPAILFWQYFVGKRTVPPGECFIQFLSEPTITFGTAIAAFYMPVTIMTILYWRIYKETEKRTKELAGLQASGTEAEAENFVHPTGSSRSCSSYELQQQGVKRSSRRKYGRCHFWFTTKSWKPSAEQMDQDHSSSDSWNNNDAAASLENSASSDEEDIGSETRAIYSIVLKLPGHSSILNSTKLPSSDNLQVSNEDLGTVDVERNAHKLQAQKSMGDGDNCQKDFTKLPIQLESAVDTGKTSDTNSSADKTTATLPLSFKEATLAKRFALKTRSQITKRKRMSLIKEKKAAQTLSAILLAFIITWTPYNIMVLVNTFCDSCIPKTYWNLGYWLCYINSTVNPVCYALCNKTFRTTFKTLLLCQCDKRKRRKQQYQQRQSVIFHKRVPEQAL
Sequence of Acetylcholinesterase (O42275 whole entry): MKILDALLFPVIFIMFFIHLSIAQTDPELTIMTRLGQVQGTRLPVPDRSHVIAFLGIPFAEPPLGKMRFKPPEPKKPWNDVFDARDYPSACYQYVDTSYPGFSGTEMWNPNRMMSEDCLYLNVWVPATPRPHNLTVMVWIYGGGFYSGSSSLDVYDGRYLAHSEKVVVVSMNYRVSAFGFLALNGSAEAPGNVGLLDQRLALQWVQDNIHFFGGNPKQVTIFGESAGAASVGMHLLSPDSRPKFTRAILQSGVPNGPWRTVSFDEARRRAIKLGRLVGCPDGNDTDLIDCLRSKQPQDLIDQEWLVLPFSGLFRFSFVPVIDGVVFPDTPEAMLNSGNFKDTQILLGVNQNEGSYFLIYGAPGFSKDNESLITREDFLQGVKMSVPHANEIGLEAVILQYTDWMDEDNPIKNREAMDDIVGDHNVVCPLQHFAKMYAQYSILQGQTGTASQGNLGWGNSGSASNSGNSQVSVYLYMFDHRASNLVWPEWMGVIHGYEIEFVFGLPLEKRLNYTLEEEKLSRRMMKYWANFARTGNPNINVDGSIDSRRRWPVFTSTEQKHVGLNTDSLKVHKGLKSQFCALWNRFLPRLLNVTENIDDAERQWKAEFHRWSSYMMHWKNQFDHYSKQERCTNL

Row | SMILES | inhibition [1] [%] | inhibition [2] [%] | inhibition [3] [%] | IC50 (Acetylcholinesterase) [nM] | inhibition [4] [%] | IC50 (Cholinesterase) [µM]
1 | Cc1nnc(NCCSCc2ccc(CN(C)C)o2)c([N+](=O)[O-])c1C | 48 | 67 | 74 | 2720 | 63 | –
2 | CN(C)Cc1ccc(CSCCN2C(=O)CCC2=O)o1 | – | – | – | 11800 | – | > 50
3 | CN(C)Cc1ccc(CSCCNc2nc(N)n[nH]2)o1 | 30.1 | 43.6 | 57.4 | > 50000 | 71.3 | > 50
4 | CN(C)Cc1ccc(CSCCNc2ncccn2)o1 | 24.3 | 24.9 | 56.2 | 16200 | 50.8 | 7.65
5 | CN(C)Cc1ccc(CSCCNc2nnc(-c3ccccc3)cc2[N+](=O)[O-])o1 | 38 | 16 | 40 | 260 | 34 | 4.46
6 | CN(C)Cc1ccc(CSCCN/C(=C/[N+](=O)[O-])N2CCCCC2)o1 | 41.5 | 47.7 | 72.1 | 4040 | 54 | 21.2
7 | CN(C)Cc1ccc(CSCCN2C(=O)c3ccc([N+](=O)[O-])cc3C2=O)o1 | – | – | – | 46000 | – | > 50
8 | CN(C)Cc1ccc(CSCCN2C(=O)c3cccc4cc([N+](=O)[O-])cc(c34)C2=O)o1 | – | – | – | 150 | – | 8.01
9 | CN(C)Cc1ccc(CSCCNc2nncc(-c3ccccc3)c2[N+](=O)[O-])o1 | 27 | 18 | 40 | 460 | 37 | 22.7
10 | CN(C)Cc1ccc(CSCCN2C(=O)c3ccccc3C2=O)o1 | – | – | – | 3570 | – | 14.5
11 | CN(C)Cc1ccc(CSCCNc2nc(N)no2)o1 | 49.8 | 42.7 | 69.9 | > 50000 | 72.8 | > 50
12 | CS/C(=N\S(=O)(=O)c1ccc(C)cc1)NCCSCc1ccc(CN(C)C)o1 | 18.5 | 4.2 | 37.5 | > 50000 | – | > 50
13 | CN(C)Cc1ccc(CSCCNc2ncccc2C#N)o1 | – | – | – | 5340 | – | 8.36
14 | CN(C)Cc1ccc(CSCCNc2nnc(-c3cccs3)c(-c3cccs3)c2[N+](=O)[O-])o1 | – | – | – | 350 | – | 2.28
15 | CN(C)Cc1ccc(CSCCNc2ccc(Cl)nn2)o1 | 2.3 | 7.7 | 25.2 | 10400 | 9.8 | > 50
16 | CN(C)Cc1ccc(CSCCNC(=O)c2ccccc2-c2ccccc2C(=O)O)o1 | – | – | – | > 50000 | – | > 50
17 | CC1CC(=O)N(CCSCc2ccc(CN(C)C)o2)C1=O (stereo not given) | – | – | – | 33400 | – | > 50
18 | Cc1ccc(S(=O)(=O)NCCSCc2ccc(CN(C)C)o2)cc1 | – | – | – | > 50000 | – | 47.2
19 | C=C1C(C)=NN/C(=C\[N+](=O)[O-])N1CCSCc1ccc(CN(C)C)o1 | 90.4 | 92.1 | 88.8 | 1650 | 81 | 7.1
20 | Cc1cccc(Nc2ccccc2C(=O)NCCSCc2ccc(CN(C)C)o2)c1C | 69.6 | 33.8 | 77.4 | > 50000 | 50.8 | > 50
21 | Cc1nnc(NCCSCc2ccc(CN(C)C)o2)c([N+](=O)[O-])c1-c1ccccc1 | 52 | 37 | 60 | 720 | 40 | –
22 | CN(C)Cc1ccc(CSCCNc2nnccc2[N+](=O)[O-])o1 | 32 | 74 | 80 | 470 | 97 | –
23 | CCc1nnc(NCCSCc2ccc(CN(C)C)o2)c([N+](=O)[O-])c1CC | – | – | – | 2540 | – | 18.8
24 | Cc1cc([N+](=O)[O-])c(NCCSCc2ccc(CN(C)C)o2)nn1 | 46 | 57 | 79 | 680 | 78 | 28.4
25 | CN(C)Cc1ccc(CSCCN/C(=C/[N+](=O)[O-])N/N=C/c2ccccc2)o1 | 66.6 | 62.3 | 88.5 | 1180 | 67 | 2.96
26 | CN(C)Cc1ccc(CSCCN2C(=O)c3cccc4cccc(c34)C2=O)o1 | – | – | – | 1270 | – | 7.21
27 | CN(C)Cc1ccc(CSCCNC(=O)Cc2ccccc2Nc2c(Cl)cccc2Cl)o1 | 43.5 | 47.3 | 60.1 | – | 27.4 | 7.65
28 | Cc1c(-c2ccccc2)nnc(NCCSCc2ccc(CN(C)C)o2)c1[N+](=O)[O-] | 63 | 58 | 84 | 160 | 72 | 3.71
29 | CN(C)Cc1ccc(CSCCNc2nnc(-c3ccccc3)c(-c3ccccc3)c2[N+](=O)[O-])o1 | 73 | 48 | 76 | 190 | 51 | 7.05
